Assay results published in PubChem BioAssay (NCI).
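Exposure lasted 48 hours, with cells grown in 96-well plates and compounds tested at five concentrations. At the TGI there is no net growth.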

What was measured:
Assay in all cases: inhibition of tumour cell growth, NCI panel, 48 h
[1] = system: LOX IMVI melanoma
[2] = system: UACC-257 melanoma
[3] = system: OVCAR-4 ovarian
[4] = system: SW-620 colon
[5] = system: HS 578T breast
[6] = system: SF-295 CNS
[7] = system: M14 melanoma
[8] = system: MOLT-4 leukemia
[9] = system: UO-31 renal
[10] = system: SN12C renal
[11] = system: MCF7 breast
[12] = system: OVCAR-8 ovarian
[13] = system: HOP-92 NSCLC
[14] = system: NCI-H522 lung
[15] = system: DU-145 prostate
[16] = system: PC-3 prostate
[17] = system: COLO 205 colon
[18] = system: HCC-2998 colon
[19] = system: RPMI-8226 leukemia
[20] = system: SK-MEL-28 melanoma
[21] = system: SR leukemia
[22] = system: EKVX NSCLC
[23] = system: SK-OV-3 ovarian
[24] = system: NCI-H23 lung
[25] = system: OVCAR-5 ovarian
[26] = system: SF-539 CNS
[27] = system: U251 CNS
[28] = system: TK-10 renal
[29] = system: RXF 393 renal
[30] = system: UACC-62 melanoma
[31] = system: CAKI-1 renal
[32] = system: HOP-62 NSCLC
[33] = system: IGROV1 ovarian
[34] = system: NCI/ADR-RES ovarian
[35] = system: HCT-116 colon
[36] = system: OVCAR-3 ovarian
[37] = system: SF-268 CNS
[38] = system: MDA-MB-231 breast
[39] = system: A549 NSCLC
[40] = system: SNB-19 CNS
[41] = system: MDA-MB-435
[42] = system: SK-MEL-2 melanoma
[43] = system: SK-MEL-5 melanoma
[44] = system: A498 renal
[45] = system: T-47D breast
[46] = system: HT29 colon
[47] = system: ACHN renal
[48] = system: HCT-15 colon
[49] = system: NCI-H226 lung
[50] = system: MALME-3M melanoma
[51] = system: MDA-N
[52] = system: KM12 colon
[53] = system: CCRF-CEM leukemia
[54] = system: 786-0 renal

Measured: TGI

CC1(C)CC[C@]2(C)CC=C3[C@]4(C)CC[C@H]5C(C)(C)C(=O)CC[C@]5(C)[C@H]4CC[C@@]3(C)[C@H]2C1
> 100 µM: [1] | [2] | [3] | [4] | [5] | [6] | [7] | [8] | [9] | [10] | [11] | [12] | [13] | [14] | [15] | [16] | [17] | [18] | [19] | [20] | [21] | [22] | [23] | [24] | [25] | [26] | [27] | [28] | [29] | [30] | [31] | [32] | [33] | [34] | [35] | [36] | [37] | [38] | [39] | [40] | [41] | [42] | [43] | [44] | [45] | [46] | [47] | [48] | [49] | [50] | [51] | [52] | [53] | [54]
